Laboratory results as given in publication PMC10821124, “Dimeric 3,5-Bis(benzylidene)-4-piperidones: Tumor-Selective Cytotoxicity and Structure-Activity Relationships” (Medicines, 2024).
Entries after “also recorded” stand apart in the source; their conditions may differ. Read-outs that look alike come from different tables or passages of the source.

Key:
[1] = tested on: human promyelocytic leukemia HL-60 cells; assay: Cytotoxicity, MTT method, HL-60 cells; assay type: cell-based; conditions: for CC50: Homo sapiens, read-out: CC50 HL-60; for SI (selectivity index) HL-60: average CC50 non-malignant cells / CC50 HL-60
Experimental: (§1) Human promyelocytic leukemia [HL-60 (RCB3683)] (purchased from Riken Cell Bank, Tsukuba, Japan) was cultured at 37 °C in RPMI1640 medium (Fujifilm Wako Pure Chemical Co., Osaka, Japan) supplemented with 10% heat (56 °C, 30 min) inactivated FBS (Sigma-Aldrich Inc. St. Louis, MO, USA), 100 U/mL penicillin G, and 100 µg/mL streptomycin sulfate in a humidified 5% CO2 incubator (MCO-170 AICUVD-P, Panasonic Healthcare Co., Ltd., Gunma, Japan). Human oral squamous cell carcinoma (OSCC) cell lines derived from tongue [HSC-2 (RCB1945), HSC-3 (RCB1975), HSC-4 (RCB1902)] (Riken Cell Bank), and human normal oral cells (gingival fibroblasts, HGF; pulp cell, HPC; periodontal ligament fibroblast, HPLF), established from the first premolar extracted tooth in the lower jaw and periodontal tissues of a child, according to the guidelines of Meikai University Ethic Committee (No. A0808), were cultured in DMEM medium (Fujifilm Wako Pure Chemical Co.) supplemented with 10% FBS and antibiotics. The compounds in Series 2–4 were evaluated against HL-60, HSC-2, HSC-3, HSC-4, HGF, HPC, and HPLF cells based on a literature procedure, as described previously. In brief, near confluent cells were incubated in triplicate for 48 h at 37 °C with different concentrations ([…], 6.3, 12.5, 25, 50, 100 µM) of the compounds; then, viable cell numbers were measured using the MTT method. From the dose–response curve, a 50% cytotoxic concentration (CC50) was determined. All samples were dissolved in dimethylsulfoxide (DMSO). The toxicity of DMSO alone was calculated and subtracted. The CC50 values were determined from dose–response curves.

[2] = tested on: human oral squamous cell carcinoma HSC-2 cells; assay: Cytotoxicity, MTT method, HSC-2 cells; assay type: cell-based; conditions: for CC50: Homo sapiens, read-out: CC50 HSC-2; for SI (selectivity index) HSC-2: average CC50 non-malignant cells / CC50 HSC-2
Experimental: as §1

[3] = tested on: human oral squamous cell carcinoma HSC-3 cells; assay: Cytotoxicity, MTT method, HSC-3 cells; assay type: cell-based; conditions: for CC50: Homo sapiens, read-out: CC50 HSC-3; for SI (selectivity index) HSC-3: average CC50 non-malignant cells / CC50 HSC-3
Experimental: as §1

[4] = tested on: human oral squamous cell carcinoma HSC-4 cells; assay: Cytotoxicity, MTT method, HSC-4 cells; assay type: cell-based; conditions: for CC50: Homo sapiens, read-out: CC50 HSC-4; for SI (selectivity index) HSC-4: average CC50 non-malignant cells / CC50 HSC-4
Experimental: as §1

[5] = Cytotoxicity, MTT method, HGF non-malignant cells; assay type: cell-based, human; conditions: human, gingival fibroblasts (HGF), non-malignant, mean ± SD
Experimental: as §1

[6] = Cytotoxicity, MTT method, HPC non-malignant cells; assay type: cell-based, human; conditions: human, pulp cells (HPC), non-malignant, mean ± SD
Experimental: as §1

[7] = Cytotoxicity, MTT method, HPLF non-malignant cells; assay type: cell-based, human; conditions: human, periodontal ligament fibroblasts (HPLF), non-malignant, mean ± SD
Experimental: as §1

[8] = tested on: human tumour cell lines HL-60, HSC-2, HSC-3, HSC-4; assay: Cytotoxicity, average over the four human tumour cell lines; assay type: cell-based; conditions: for CC50: Homo sapiens, read-out: AVE. CC50, human tumour cell lines; for AVE SI: average of the four SI values
Experimental: as §1

[9] = Cytotoxicity, average over the three human normal cells; assay type: cell-based; conditions: human, average of HGF, HPC, HPLF; read-out: AVE CC50, human normal cells
Experimental: as §1

caspases-3 and -7 = assay: Caspase-Glo 3/7 assay in HSC-2 cells; assay type: cell-based, human; conditions: 0.5 µM, 24 h
Experimental: Both 3b (0.5 µM) and 3c (0.5 µM) were examined for their ability to activate caspases-3 and -7 in HSC cells. This determination was accomplished using the Caspase-Glo 3/7 assay (Promega Corporation, Madison, WI, USA). In brief, this assay uses a tetrapeptide sequence DEVD, which is optimized for caspase and luciferase activities. The cell lysate was incubated with the Caspase-Glo reagent (buffer and substrate) for 1 h and the luminescence was measured. The resultant luminescent signal produced by luciferase was confirmed to be proportional to the amount of caspase-3 and -7 activity.

PARP1 = PARP1 cleavage, western blot in HSC-2 cells; assay type: cell-based, human; conditions: 0.5 µM, 24 h
Experimental: (§2) Antibodies against cleaved PARP1, bim, bax, puma, and bak were obtained from Cell Signaling Technology (Beverley, MA, USA) while the anti-actin antibody was purchased from Santa Cruz Biotechnology (Santa Cruz, CA, USA).
(§3) The HSC-2 cells were cultured for 24 h and, then, treated with 0.5 µM of 3b or 3c for 24 h. The cells were scraped and collected in lysis buffer (purchased from Cell Signaling Technology), which contained 1 mM of phenylmethanesulfonyl fluoride and one tablet of protease inhibitor cocktail (Complete, EDTA-free; Roche Diagnostics, Mannheim, Germany). The proteins were subjected to 8% SDS-polyacrylamide gel electrophoresis and, then, transferred to a polyvinylidene difluoride membrane saturated with 5% nonfat dry milk. The membranes were incubated with rabbit monoclonal anti-cleaved PARP (Cell Signaling Technology, Beverly, MA, USA; #9541, 1:1000), or beta-actin antibody (Sigma-Aldrich, St Louis, MO, USA; A5441, 1:10,000) for 1 h at room temperature. The membranes were washed with Tris-buffered saline containing 0.1% Tween 80. And, the secondary antibodies were horseradish peroxidase-conjugated goat antimouse or antirabbit, which reacted with the chemoluminescent substrate system and were exposed to X-ray films.

HSC-2 cells = assay: Cell cycle analysis of HSC-2 cells; assay type: cell-based, human; conditions: 0.5 µM, 24 h
Experimental: The effect of 3b (0.5 µM) and 3c (0.5 µM) on the phase distribution of HSC-2 cells after 24 h of incubation was determined using the protocol of a manufacturer (BD Pharmingen, BD BioSciences, San Jose, CA, USA). In brief, treated and untreated cells were suspended at a density of ~1 × 10^6 cells/mL in cooled phosphate-buffered saline (PBS) without calcium and magnesium ions and fixed with 70% ethanol overnight at −20 °C. The cells were washed with cooled PBS and re-suspended in a propidium iodide/RNase staining buffer in the dark at room temperature for 0.25 h. Both acquisition and analysis were performed using EPICS ALTRA (Beckman Coulter, Brea, CA, USA) and EXPO 32 software.

bim, bax, puma, and bak = assay: Pro-apoptotic proteins bim, bax, puma, bak in HSC-2 cells; assay type: cell-based, human; conditions: 24 h, data not shown
Experimental: as §2, §3

HCT116 cells [10] = assay: Mitochondrial membrane potential determination in HCT116 cells; assay type: cell-based, human; conditions: 48 h, tetramethylrhodamine ethyl ester
Experimental: The determination of the IC50 values of 3b, 3c, and 5-FU on the mitochondrial membrane potential in HCT 116 cells was undertaken using a literature procedure. In brief, the cells were incubated at 37 °C in an atmosphere of 5% carbon dioxide for 24 h. The compounds were dissolved in DMSO, added to the cells, and incubated for 48 h. Then, […], and 2,4-dinitrophenol (DNP) were added to the cells, which were incubated for 0.5 h. After the addition of tetramethylrhodamine ethyl ester, the fluorescence of the cells was determined using a plate reader.

HCT116 cells [11] = assay: Reactive oxygen species determination in HCT116 cells; assay type: cell-based, human; conditions: for Generation of reactive oxygen species (ROS): 48 h, dichlorofluorescein fluorescence
Experimental: The determination of the effects of 3b, 3c, and 5-FU on the generation of reactive oxygen species in HCT 116 cells was accomplished using a literature procedure. In brief, the cells were incubated at 37 °C in an atmosphere of 5% carbon dioxide for 24 h. Subsequently, solutions of the compounds in DMSO were added to the cells, which were incubated for 48 h. After 2′,7′-dichlorofluorescein was added to the cells, incubation continued for another 0.5 h and the fluorescence of the cells was measured spectrophotometrically (excitation wavelength 485 nm; emission wavelength, 530 nm).

[12] = tested on: human gingival fibroblasts (HGF); assay: Cytotoxicity, MTT method, HGF non-malignant cells; assay type: cell-based; conditions: 48 h, mean ± SD
Experimental: as §1

human pulp cells (HPC) = assay: Cytotoxicity, MTT method, HPC non-malignant cells; assay type: cell-based; conditions: 48 h, mean ± SD
Experimental: as §1

[13] = tested on: human periodontal ligament fibroblasts (HPLF); assay: Cytotoxicity, MTT method, HPLF non-malignant cells; assay type: cell-based; conditions: 48 h, mean ± SD
Experimental: as §1

[14] = tested on: human normal cells HGF, HPC, HPLF; assay: Cytotoxicity, average over the three human normal cells; assay type: cell-based; conditions: average of HGF, read-out: AVE CC50, human normal cells
Experimental: as §1

[15] = average of HL-60, HSC-2, HSC-3, HSC-4

| Compound | CC50 ([1]; HL-60, 48 h, MTT, mean ± SD) [µM] | SI (selectivity index) HL-60 [1] | CC50 ([2]; HSC-2, 48 h, MTT, mean ± SD) [µM] | SI (selectivity index) HSC-2 [2] | CC50 ([3]; HSC-3, 48 h, MTT, mean ± SD) [µM] | SI (selectivity index) HSC-3 [3] | CC50 ([4]; HSC-4, 48 h, MTT, mean ± SD) [µM] | SI (selectivity index) HSC-4 [4] | CC50 at 48 h [5] [µM] | CC50 at 48 h [6] [µM] | CC50 at 48 h [7] [µM] | CC50 [8, 15] [µM] | AVE SI [8] | CC50 at 48 h [9] [µM] | Induction of caspases-3 and -7 (caspases-3 and -7) | Cleavage of PARP1 (PARP1) | Cell cycle effect (HSC-2 cells) | Effect on pro-apoptotic proteins bim, bax, puma, bak (bim, bax, puma, and bak) | Effect on mitochondrial membrane potential (MMP) (HCT116 cells [10]) | Generation of reactive oxygen species (ROS) (HCT116 cells [11]) | other results |
| --- | --- | --- | --- | --- | --- | --- | --- | --- | --- | --- | --- | --- | --- | --- | --- | --- | --- | --- | --- | --- | --- |
| O=C1/C(=C/c2ccc(Cl)cc2)CN(C(=O)CC(=O)N2C/C(=C\c3ccc(Cl)cc3)C(=O)/C(=C/c3ccc(Cl)cc3)C2)C/C1=C\c1ccc(Cl)cc1 [Compound 3c] | 5 ± 0.76 | 8.26 | 5.5 ± 0.65 | 7.51 | 13 ± 2.2 | 3.18 | 5.5 ± 0.96 | 7.51 | 41 ± 2.5 | 38 ± 8.7 | 45 ± 11 | 7.25 | 6.62 | 41.3 | does not exert these effects | does not exert these effects | does not exert these effects | no changes in the concentrations of these proteins were observed | no effect at the concentrations utilized | cause an increase in the ROS concentrations | – |
| O=C1/C(=C/c2ccc(F)cc2)CN(C(=O)CC(=O)N2C/C(=C\c3ccc(F)cc3)C(=O)/C(=C/c3ccc(F)cc3)C2)C/C1=C\c1ccc(F)cc1 [Compound 3b] | 0.028 ± 0.001 | 151 | 0.041 ± 0.004 | 103 | 0.046 ± 0.011 | 92.0 | 0.023 ± 0.003 | 184 | 3.8 ± 0.71 | 3.2 ± 1.1 | 5.7 ± 0.67 | 0.04 | 133 | 4.23 | induced caspases-3 and -7 | causing the cleavage of PARP; also recorded: leads to the cleavage of PARP1 | G2M arrest in the cell cycle; also recorded: causes a G2/M arrest | no changes in the concentrations of these proteins were observed | huge effect on lowering the MMP | cause an increase in the ROS concentrations | CC50 values in all four bioassays (range in words) ([8]; HL-60, HSC-2, HSC-3, HSC-4): double-digit nanomolar range; ROS generation, potency relative to 3c (HCT116 cells [11]): approximately twice the potency of 3c |
| N[C@@H](Cc1ccc(N(CCCl)CCCl)cc1)C(=O)O [Melphalan, reference compound] | – | 75.6 | – | 5.61 | – | 1.46 | – | 1.46 | – | – | – | – | 21.0 | > 50 | – | – | – | – | – | – | CC50 ([1]; HL-60, 48 h): 0.89 ± 0.17 µM; CC50 ([2]; HSC-2, 48 h): 12 ± 2.7 µM; CC50 ([3]; HSC-3, 48 h): 46 ± 31 µM; CC50 ([4]; HSC-4, 48 h): 46 ± 6 µM; CC50 [12]: 73 ± 15 µM; CC50 (human pulp cells (HPC)): 37 ± 7.3 µM; CC50 [13]: 92 ± 7.8 µM; CC50 [8]: 26.2 µM; CC50 [14]: 67.3 µM |
